Laboratory results as given in PMC5118696, “Identification of inhibitors that dually target the new permeability pathway and dihydroorotate dehydrogenase in the blood stage of Plasmodium falciparum” (Scientific Reports, 2016).
Read-outs that look alike come from different tables or passages of the source.

How the values were obtained:
[1] = test system: Hyp1-NLuc Plasmodium falciparum-infected erythrocytes (new permeability pathway, NPP); assay: microbe, parasite or virus in culture; conditions: Erythrocyte, 0.33 h, read-out: Mean RLU at 28 min (As % of DMSO control)
[2] = test system: Hyp1-NLuc Plasmodium falciparum-infected erythrocytes (new permeability pathway, NPP); assay: microbe, parasite or virus in culture; conditions: Erythrocyte, 0.33 h, read-out: % of control remaining

| Structure (SMILES) | activity at 2 µM [1] | activity at 2 µM [2] |
| --- | --- | --- |
| COc1ccc2nc(C)cc(Nc3ccccc3O)c2c1 [MMV274073] | 110% | 110% |
| O=C(Nc1ccc(Cl)c(Cl)c1)Nc1ccc(Cl)c(Cl)c1 [MMV665852] | 117% | 125% |
| Oc1ccc(Br)cc1CN1CCN(Cc2cccc(F)c2)CC1 [MMV000356] | 101% | 98.9% |
| c1ccc(-c2ccc(-c3nc4ccccc4[nH]3)cc2)cc1 [MMV665891] | 109% | 122% |
| OC(CNC1CCCCC1)Cn1c2ccccc2c2ccccc21 (stereo not drawn) [MMV009063] | 97% | 92.9% |
| Nc1ccc(-c2nc3cc(Cc4ccc5[nH]c(-c6ccc(N)cc6)nc5c4)ccc3[nH]2)cc1 [MMV665943] | 64.3% | 51.7% |
| CCCCCn1c(=N)n(CC(O)COc2cccc(C)c2)c2ccccc21 (stereo not drawn) [MMV000444] | 95.8% | 99.2% |
| COc1cccc(NC(=O)Cn2c(C)c(C#N)c3ccccc32)c1 [MMV665826] | 101% | 109% |
| CCCCOC(=O)c1ccc(Nc2cc(C)nc3ccc(OC)cc23)cc1 [MMV665797] | 104% | 107% |
| Oc1ccc(Cl)cc1CNc1nc2ccccc2[nH]1 [MMV665850] | 105% | 110% |
| Cc1sc2ncnc(Sc3nc4ccccc4[nH]3)c2c1C [MMV019266] | 109% | 109% |
| O=c1nc(C=Cc2ccc(Cl)cc2)oc2ccccc12 [MMV007977] | 110% | 105% |
| COc1ccc(CCN2CCC(CN(C)Cc3cnn(-c4ccccc4)c3)CC2)cc1 [MMV666069] | 102% | 105% |
| CC(C)(C)C(=O)Nc1ccc(C(=O)Nc2cccc(-c3nc4ccccc4[nH]3)c2)cc1 [MMV665879] | 103% | 114% |
| Oc1ccccc1CNCC12CC3CC(CC(C3)C1)C2 [MMV020788] | 108% | 109% |
| Oc1ccccc1CN1CCC2(CCCN(Cc3ccccc3F)C2)C1 (stereo not drawn) [MMV666116] | 100% | 106% |
| Oc1ccc(C(=C(Cl)Cl)c2ccc(O)cc2)cc1 [MMV665949] | 90% | 95.5% |
| O=C(Nc1ccc(-c2nc3cc(NC(=O)c4ccc(Cl)cc4)ccc3[nH]2)cc1)c1ccc(Cl)cc1 [MMV006962] | 101% | 99.7% |
| CCN(CC)CCNc1ccnc2cc(Cl)ccc12 [MMV006087] | 107% | 105% |
| COc1ccc(C2c3ccc4ccccc4c3Oc3ncn(CCCN(C)C)c(=N)c32)cc1 (stereo not drawn) [MMV667491] | 87.3% | 69.1% |
| O=C(c1ccccc1F)N(Cc1ccc(Cl)cc1)c1ccccn1 [MMV665899] | 102% | 106% |
| CC1CC(C)CN(C(=O)c2ccc(Cl)cc2Cl)C1 (stereo not drawn) [MMV001344] | 106% | 107% |
| OC(CNCC1CCCO1)Cn1c2ccc(Cl)cc2c2cc(Cl)ccc21 (stereo not drawn) [MMV396736] | 116% | 112% |
| Oc1c2c(nc3ccccc13)CCCC2 [MMV665843] | 109% | 111% |

| Structure (SMILES) | activity at 2 µM [1] | activity at 2 µM [2] |
| --- | --- | --- |
| CCOc1cccc2sc(N(Cc3cccnc3)C(=O)C3CCCCC3)nc12 [MMV001230] | 103% | 113% |
| CCN(CC)CCCNc1nc(-c2ccc(Cl)cc2)nc2ccccc12 [MMV665961] | 103% | 101% |
| C[n+]1c2ccccc2nc2ccc(NCCO)cc21 [MMV396693] | 101% | 100% |
| OC(CNC1CCCCC1)Cn1c2ccc(I)cc2c2cc(I)ccc21 (stereo not drawn) [MMV665882] | 103% | 93.7% |
| Cc1cccc(-n2ncc3c(=O)[nH]c(-n4nc(C)cc4NC(=O)c4cc5ccccc5o4)nc32)c1 [MMV403679] | 109% | 109% |
| Cc1ccc(-c2cc3c(SCC(=O)Nc4cc(C(F)(F)F)ccc4Cl)nccn3n2)cc1 [MMV396680] | 106% | 101% |
| FC(F)(F)c1cccc(Nc2nc(-c3ccccc3)nc3ncccc23)c1 [MMV665798] | 103% | 117% |
| CCOc1c(Br)cc(C2C(C(=O)OC)=CN(C)C=C2C(=O)OC)cc1OC [MMV006764] | 80.4% | 85.8% |
| CCOc1cc(Cl)c(C(C)NC(=O)c2ccccc2)cc1OCC (stereo not drawn) [MMV665800] | 100% | 111% |
| O=C(CSc1nccn2nc(-c3ccccc3)cc12)Nc1cc(C(F)(F)F)ccc1Cl [MMV396678] | 107% | 107% |
| CCc1ccc(Nc2cc(C)nc3nc(C)nn23)cc1 [MMV007374] | 113% | 114% |
| CCOC(=O)C1=CN(C)C=C(C(=O)OCC)C1c1cc(Br)c(OCC)c(OC)c1 [MMV006656] | 105% | 102% |
| CCOc1ccc(C2N(C)c3ccccc3N2C)cc1 [MMV075490] | 117% | 116% |
| CCCCNc1nc(NC(C)(C)C)nc(NC(C)(C)C)n1 [MMV665864] | 119% | 130% |
| COC(=O)c1ccc(C2C3=C(O)CC(c4ccc(F)cc4)CC3=Nc3ccccc3N2C(=O)c2ccccc2)cc1 (stereo not drawn) [MMV011438] | 92.2% | 89.7% |
| CC1(c2ccccc2)Nc2ccccc2-c2nc3ccccc3n21 (stereo not drawn) [MMV396715] | 102% | 100% |
| CCN(CC)CCCNc1ccnc2cc3ccccc3cc12 [MMV665783] | 101% | 106% |
| Fc1ccc2[nH]c3c(NCCCN4CCOCC4)ncnc3c2c1 [MMV019871] | 106% | 102% |
| Cc1ccc(F)cc1NC(=O)c1cc(Cl)ccc1Nc1ccccc1 [MMV007275] | 106% | 116% |
| COc1ccc(-c2cc3c(SCC(=O)Nc4cc(C(F)(F)F)ccc4Cl)nccn3n2)cc1 [MMV396679] | 106% | 105% |
| CCN(CC)c1ccc(NC(=O)c2cccs2)cc1 [MMV009060] | 103% | 111% |
| CCn1c(SCC(=O)Nc2cc(C(F)(F)F)ccc2Cl)nc2ccccc2c1=O [MMV666103] | 100% | 113% |
| O=c1nc(C=Cc2ccc(Br)cc2)oc2ccccc12 [MMV666599] | 102% | 94.3% |
| CCc1ccc(CNCC(O)c2ccccc2)cc1 (stereo not drawn) [MMV665812] | 95.4% | 96.2% |

| Structure (SMILES) | activity at 2 µM [1] | activity at 2 µM [2] |
| --- | --- | --- |
| O=C(Nc1nc(-c2ccccn2)cs1)c1ccccc1Br [MMV665909] | 95.5% | 103% |
| CCN(CC)CCNc1ccnc2cc3ccccc3cc12 [MMV006303] | 109% | 107% |
| CC1CN(C(=O)c2sc3ccccc3c2Cl)CC(C)O1 (stereo not drawn) [MMV020492] | 103% | 102% |
| COc1ccccc1N=C1C(=O)c2ccccc2C(O)=C1N1CCCCC1 [MMV085203] | 107% | 104% |
| CCN1CCN(c2c(C(=O)c3ccccc3)cnc3cc(OC)c(OC)cc23)CC1 [MMV008474] | 97.3% | 102% |
| c1ccc2cc3c(Nc4ccc(N5CCOCC5)cc4)ccnc3cc2c1 [MMV006861] | 109% | 102% |
| Cc1ccc(OCCCCCCNCCO)c(C)c1 [MMV666020] | 97% | 97.1% |
| O=C(NNc1cc(N2CCCC2)nc(N2CCCC2)n1)c1ccccc1 [MMV396770] | 101% | 88.7% |
| COc1ccc(C(=O)Nc2nonc2-c2ccc(OC)c(OC)c2)cc1Cl [MMV011567] | 103% | 103% |
| CC(C)(C)c1ccc(C(=O)Nc2c3c(nn2-c2cccc(Cl)c2)CSC3)cc1 [MMV666123] | 104% | 108% |
| FC(F)(F)c1ccc(Nc2nnnc3ccccc23)cc1 [MMV665935] | 99.5% | 112% |
| O=C1c2ccccc2C2=Nc3ccccc3SC(c3cccc(F)c3)C12 (stereo not drawn) [MMV006389] | 98.3% | 102% |
| CCOc1ccc(Nc2c3ccccc3nc3ccccc23)cc1 [MMV000304] | 107% | 109% |
| COc1ccc(Nc2nc(NN=Cc3ccc(O)cc3)nc(Nc3ccc([N+](=O)[O-])cc3)n2)cc1 [MMV666689] | 95.2% | 93.1% |
| COc1cc2c(cc1OC)C1=NNC(=O)C1=NC(C)(C)C2 [MMV084940] | 101% | 101% |
| Clc1ccc2c(N3CCCC3)ccnc2c1 [MMV007363] | 114% | 115% |
| CCOc1ccc2nc(C)cc(Nc3ccc(Br)cc3)c2c1 [MMV006522] | 102% | 104% |
| COc1ccc(Nc2nc(NCc3ccccc3)c3ccccc3n2)cc1 [MMV000963] | 103% | 106% |
| O=[N+]([O-])c1ccc(C=NNc2nc3ccccc3[nH]2)cc1 [MMV666607] | 103% | 102% |
| COc1ccc(C=C2SC(Nc3ccccc3)=NC2=O)cc1 [MMV665836] | 86.5% | 55.9% |
| COc1cccc(C(=O)NC(c2ccc(C)cc2)c2cc(Cl)c3cccnc3c2O)c1 (stereo not drawn) [MMV665969] | 101% | 106% |
| Clc1ccc2[nH]c3c(NCCCN4CCOCC4)ncnc3c2c1 [MMV006587] | 116% | 102% |
| CN(C)CCCNc1c2ccccc2nc2ccccc12 [MMV000448] | 102% | 102% |
| O=C(Nc1ccc(-c2nc3ccccc3[nH]2)cc1)c1ccc(Cl)c(Cl)c1 [MMV665840] | 109% | 107% |
